From patent publication US20230263822A1, “MODULATION OF FACTOR 11 EXPRESSION” (Ionis Pharmaceuticals, Inc., priority 2008, published 2023) come the findings set out here.

Read-outs that look alike come from different tables or passages of the source. Strand notation (5' to 3'): a small letter for the sugar, then the base; units joined by * are phosphorothioate-linked, units joined directly phosphodiester-linked; [ ] holds rarer units or linkages, { } end groups; capitals alone tell only the bases. e = 2'-O-(2-methoxyethyl) (MOE); [5mC] = 5-methylcytosine; d = 2'-deoxy (DNA)

The nature of series [1]: Tolerability in Sprague-Dawley rats: hematology assays (Example 35). To be noted: 50 mg/kg s.c. twice per week for 6 weeks; for HCT / MCH / MCHC / MCV: title says % control.
Experimental: A control group of four Sprague Dawley rats was injected subcutaneously with PBS twice per week for 6 weeks. Body weight measurements were taken before and throughout the treatment period. Urine samples were taken before the start of treatment. Three days after the last dose, urine samples were taken and the rats were sacrificed. Organ weights were measured and blood was collected for further analysis.
Blood obtained from all rat groups were sent to Antech Diagnostics for hematocrit (HCT), mean corpuscular volume (MCV), mean corpuscular hemoglobin (MCV), and mean corpuscular hemoglobin concentration (MCHC) measurements and analyses, as well as measurements of various blood cells, such as WBC (neutrophils, lymphocytes and monocytes), RBC, and platelets as well as hemoglobin content.
For series [2] the following is noted: mouse, in vivo, sc, 50 mg/kg.
For series [3] the following is noted: mouse, in vivo, sc, 50 mg/kg. This is another data set of the same source.
The nature of series [4]: Tolerability in Sprague-Dawley rats: kidney function (Example 44). The format is in vivo. To be noted: 50 mg/kg s.c. twice per week for 6 weeks; for BUN / Creatinine: plasma.
Series [5] in a line: Tolerability in CD1 mice: liver function (Example 43). To be noted: 50 mg/kg s.c. twice per week for 6 weeks, plasma. Details: Albumin: unit not given here. The format is in vivo.
Series [6] in a line: Tolerability in CD1 mice: body weight and organ weight (Example 43). In kind it is in vivo. To be noted: 50 mg/kg s.c. twice per week for 6 weeks, at the end of the study. The text has this:
The body weights of the mice taken at the end of the study are presented in Table 104 and are expressed in grams.

“ISIS 416838: MOE gapmer, nucleobases 1018 to 1042 of SEQ ID NO: 1 (Table 6) (antisense GCAACCGGGATGATGAGTGC; MOE gapmer, wing and gap sizes not given here)”: in series [1], the Platelets is on record as 27 10^3/μL, the RBC is given as 4, the WBC was 13 nL⁻¹ and the lymphocytes is given as 3%. In series [1], this substance showed a monocytes of 6%, a neutrophils of 17%, an HCT of 5% and an MCH of 2. In series [1], this substance showed an MCHC of 5% and an MCV of 4.
Take “ISIS 416850: MOE gapmer, nucleobases 1275 to 1318 of SEQ ID NO: 1 (Table 8) (antisense TGCACAGTTTCTGGCAGGCC; MOE gapmer, wing and gap sizes not given here)”: in series [2], the ALT is listed as 75 IU/L, the AST is given as 99 IU/L, the Bilirubin worked out at 0.21 mg/dL and the Cholesterol is on record as 142 mg/dL. Besides, in series [3], the HCT worked out at 49%, the Lymphocyte worked out at 4004 cells/μL, the Neutrophil was 1144 cells/μL and the Platelets was 916 10^3/μL. Moreover, in series [3], the RBC is reported as 10 10^6/μL, the WBC is given as 5 10^3/μL, the hemoglobin is given as 15 g/dL and the monocytes stood at 156 cells/μL. Also, in series [1], the Platelets is on record as 26 10^3/μL, the RBC stood at 7, the WBC turned out to be 16 nL⁻¹ and the lymphocytes stood at 8%. Moreover, in series [1], the monocytes was 11%, the neutrophils turned out to be 48%, the HCT turned out to be 5% and the MCH was determined as 4. Also, in series [1], the MCHC came to 2% and the MCV was 3.
In series [2], “ISIS 416858: MOE gapmer, nucleobases 1275 to 1318 of SEQ ID NO: 1 (Table 8) (antisense ACGGCATTGGTGCACAGTTT; MOE gapmer, wing and gap sizes not given here)” returned an ALT of 640 IU/L, an AST of 547 IU/L, a Bilirubin of 0.28 mg/dL and a Cholesterol of 181 mg/dL. For the same substance, in series [3], the HCT is 50%, the Lymphocyte was 5480 cells/μL, the Neutrophil came to 2229 cells/μL and the Platelets is reported as 782 10^3/μL. For the same substance, in series [3], the RBC is reported as 9 10^6/μL, the WBC is recorded as 8 10^3/μL, the hemoglobin is recorded as 14 g/dL and the monocytes came to 248 cells/μL. Further, in series [1], the Platelets is listed as 19 10^3/μL, the RBC was 2, the WBC is 28 nL⁻¹ and the lymphocytes is 3%. In series [1], this substance returned a monocytes of 10%, a neutrophils of 20%, an HCT of 3% and an MCH of 2. Besides, in series [1], the MCHC was found to be 1% and the MCV was determined as 2.
Turning to “ISIS 416864: MOE gapmer, nucleobases 1275 to 1318 of SEQ ID NO: 1 (Table 8) (antisense GGCAGCGGACGGCATTGGTG; MOE gapmer, wing and gap sizes not given here)”, in series [2], the ALT came to 36 IU/L, the AST is listed as 67 IU/L, the Bilirubin is 0.19 mg/dL and the Cholesterol is reported as 152 mg/dL. For the same substance, in series [3], the HCT turned out to be 52%, the Lymphocyte was found to be 3921 cells/μL, the Neutrophil was 973 cells/μL and the Platelets is 750 10^3/μL. In series [3], the RBC is listed as 10 10^6/μL, the WBC is 5 10^3/μL, the hemoglobin came to 15 g/dL and the monocytes amounted to 141 cells/μL. For the same substance, in series [1], the Platelets is reported as 12 10^3/μL, the RBC is given as 4, the WBC amounted to 15 nL⁻¹ and the lymphocytes turned out to be 2%. Also, in series [1], the monocytes stood at 29%, the neutrophils stood at 26%, the HCT amounted to 2% and the MCH was determined as 2. Further, in series [1], the MCHC amounted to 4% and the MCV is 4.
As for “ISIS 417002: MOE gapmer, nucleobases 1275 to 1318 of SEQ ID NO: 1 (Table 8) (antisense GGTGCACAGTTTCTGGCAGG; MOE gapmer, wing and gap sizes not given here)”, in series [1], the Platelets is recorded as 7 10^3/μL, the RBC was 5, the WBC turned out to be 23 nL⁻¹ and the lymphocytes was 4%. Also, in series [1], the monocytes is 25%, the neutrophils is listed as 22%, the HCT worked out at 7% and the MCH stood at 3. In series [1], this substance gave an MCHC of 5% and an MCV of 7.
On to “ISIS 449707: 3-8-3, 4-8-4, 2-10-2, 3-10-3 or 4-10-4 MOE microwalk gapmer (Table 46) (antisense e[5mC]*eA*e[5mC]*eA*dG*dT*dT*dT*d[5mC]*dT*dG*dG*e[5mC]*eA*eG*eG)”, for which, in series [4], the BUN was 24 mg/dL, the Creatinine was 0.4 mg/dL and the Urine protein/creatinine ratio was 3.2. In series [5], this substance had an ALT of 41 IU/L, an AST of 62 IU/L, an Albumin of 2.3 and a Bilirubin of 0.19 mg/dL. The same substance displayed a body weight in series [6] of 42 g.
As for “ISIS 449708: 3-8-3, 4-8-4, 2-10-2, 3-10-3 or 4-10-4 MOE microwalk gapmer (Table 46) (antisense eA*e[5mC]*eA*dG*dT*dT*dT*d[5mC]*dT*dG*dG*e[5mC]*eA*eG)”, in series [4], the BUN came out at 24 mg/dL, the Creatinine was 0.4 mg/dL and the Urine protein/creatinine ratio is recorded as 5.7. In series [5], this substance displayed an ALT of 66 IU/L, an AST of 103 IU/L, an Albumin of 2.8 and a Bilirubin of 0.17 mg/dL. The same substance came in with a body weight in series [6] of 40 g.
In the case of “ISIS 449709: 3-8-3, 4-8-4, 2-10-2, 3-10-3 or 4-10-4 MOE microwalk gapmer (Table 46) (antisense eG*e[5mC]*eA*e[5mC]*dA*dG*dT*dT*dT*d[5mC]*dT*dG*dG*d[5mC]*eA*eG*eG*e[5mC])”, in series [4], the BUN is recorded as 24 mg/dL, the Creatinine is 0.4 mg/dL and the Urine protein/creatinine ratio is on record as 3.4. In series [5], this substance showed an ALT of 62 IU/L, an AST of 83 IU/L, an Albumin of 2.8 and a Bilirubin of 0.18 mg/dL. This substance also returned a body weight in series [6] of 40 g.
Turning to “ISIS 449710: 3-8-3, 4-8-4, 2-10-2, 3-10-3 or 4-10-4 MOE microwalk gapmer (Table 46) (antisense e[5mC]*eA*e[5mC]*dA*dG*dT*dT*dT*d[5mC]*dT*dG*dG*d[5mC]*eA*eG*eG)”, in series [4], the BUN was 29 mg/dL, the Creatinine is on record as 0.3 mg/dL and the Urine protein/creatinine ratio is on record as 5.9. In series [5], this substance came in with an ALT of 43 IU/L, an AST of 95 IU/L, an Albumin of 2.8 and a Bilirubin of 0.18 mg/dL. The same substance displayed a body weight in series [6] of 42 g.
With “ISIS 449711: 3-8-3, 4-8-4, 2-10-2, 3-10-3 or 4-10-4 MOE microwalk gapmer (Table 46) (antisense eA*e[5mC]*dA*dG*dT*dT*dT*d[5mC]*dT*dG*dG*d[5mC]*eA*eG)”, in series [4], the BUN was 28 mg/dL, the Creatinine amounted to 0.4 mg/dL and the Urine protein/creatinine ratio is given as 7.3. In series [5], this substance returned an ALT of 52 IU/L, an AST of 83 IU/L, an Albumin of 2.8 and a Bilirubin of 0.22 mg/dL. In series [6], this substance came in with a body weight of 42 g.
